Experimental data reported in patent US11051515B2, “3-acyl-benzamides and their use as herbicides” (Bayer Aktiengesellschaft, priority 2017, dated 2021).

Columns and labels:
POLCO [1] = assay: Post-emergence action against POLCO; type: in vivo, Polygonum convolvulus; conditions: post-emergence, dosage 80 g/ha
Description: (§1) Seeds of monocotyledonous and dicotyledonous weed and crop plants are laid out in sandy loam soil in wood-fiber pots, covered with soil and cultivated in a greenhouse under good growth conditions. 2 to 3 weeks after sowing, the test plants are treated at the one-leaf stage. The compounds of the invention, formulated in the form of wettable powders (WP) or as emulsion concentrates (EC), are then sprayed onto the green parts of the plants in the form of an aqueous suspension or emulsion at a water application rate equating to […], with addition of 0.2% wetting agent. After the test plants have been left to stand in the greenhouse under optimal growth conditions for about 3 weeks, the action of the preparations is assessed visually in comparison to untreated controls (herbicidal action in percent (%): 100% activity=the plants have died, 0% activity=like control plants). […] At the same time, inventive compounds leave Gramineae crops such as barley, wheat, rye, millet/Sorghum, corn or rice virtually undamaged when applied post-emergence, even at high active ingredient dosages. In addition, some substances are also harmless to dicotyledonous crops such as soya, cotton, oilseed rape, sugar beet or potatoes. Some of the compounds according to the invention have high selectivity and are therefore suitable for controlling unwanted vegetation in agricultural crops by the post-emergence method. The data of Tables B18 to B34 below illustrate, in an exemplary manner, the […] herbicidal action of the compounds according to the invention, the herbicidal activity being stated in percent.

ABUTH [2] = assay: Post-emergence action against ABUTH; type: in vivo, Abutilon theophrasti; conditions: for Post-emergence action against ABUTH (herbicidal action in percent): dosage 80 g/ha, visual assessment about 3 weeks after treatment vs untreated controls
How it was run: (§2)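 Post-emergence foliar spray on greenhouse plants at the one-leaf stage, using wettable-powder or emulsion-concentrate formulations in water (600 to […], plus 0.2% wetting agent). Damage scored by eye roughly 3 weeks later against untreated plants: 0% = like control, 100% = dead.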

CYPES [3] = assay: Pre-emergence action against CYPES; type: in vivo, Cyperus esculentus; conditions: for Pre-emergence action against CYPES (herbicidal activity): dosage 320 g/ha, scored visually after 3 weeks vs untreated controls; for Herbicidal efficacy against CYPES: 80 g of a.i./ha
How it was run: (§3)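 Seeds sown in sandy loam in wood-fiber pots and covered with soil. Greenhouse growth; visual damage scored after 3 weeks versus untreated controls (100% = dead, 0% = like control).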

AMARE [4] = assay: Pre-emergence action against AMARE; type: in vivo, Amaranthus retroflexus; conditions: pre-emergence, dosage 320 g/ha, scored visually after 3 weeks vs untreated controls
How it was run: as §3

ABUTH [5] = assay: Pre-emergence action against ABUTH; type: in vivo, Abutilon theophrasti; conditions: pre-emergence, dosage 320 g/ha, scored visually after 3 weeks vs untreated controls
How it was run: as §3

VIOTR [6] = assay: Pre-emergence action against VIOTR; type: in vivo, Viola tricolor; conditions: for Pre-emergence action against VIOTR: Dosage 320 g/ha
How it was run: as §3

STEME [7] = assay: Post-emergence action against STEME; type: in vivo, Stellaria media; conditions: for Post-emergence action against STEME: dosage 80 g/ha
How it was run: as §2

PHBPU [8] = assay: Post-emergence action against PHBPU; type: in vivo, Pharbitis purpurea; conditions: post-emergence, dosage 80 g/ha
How it was run: as §2

VERPE [9] = assay: Pre-emergence action against VERPE; type: in vivo, Veronica persica; conditions: Dosage 320 g/ha, pre-emergence
How it was run: as §3

SETVI [10] = assay: Pre-emergence action against SETVI; type: in vivo, Setaria viridis; conditions: for SETVI (Table B8, pre-emergence herbicidal activity): dosage 320 g/ha, scored visually after 3 weeks vs untreated controls
How it was run: as §3

VIOTR [11] = assay: Post-emergence action against VIOTR; type: in vivo, Viola tricolor; conditions: for Post-emergence action against VIOTR: dosage 80 g/ha
How it was run: as §2

VERPE [12] = assay: Post-emergence action against VERPE; type: in vivo, Veronica persica; conditions: dosage 80 g/ha
How it was run: as §2

AVEFA [13] = assay: Post-emergence action against AVEFA; type: in vivo, Avena fatua; conditions: post-emergence, dosage 80 g/ha, visual assessment about 3 weeks after treatment vs untreated controls
Description: as §1

ECHCG [14] = assay: Pre-emergence action against ECHCG; type: in vivo, Echinochloa crus-galli; conditions: pre-emergence, dosage 320 g/ha, scored visually after 3 weeks vs untreated controls
How it was run: as §3

MATIN [15] = assay: Pre-emergence action against MATIN; type: in vivo, Matricaria inodora; conditions: for Pre-emergence action against MATIN: Dosage 320 g/ha
How it was run: as §3

STEME [16] = assay: Pre-emergence action against STEME; type: in vivo, Stellaria media; conditions: for Pre-emergence action against STEME: Dosage 320 g/ha
How it was run: as §3

POLCO [17] = assay: Pre-emergence action against POLCO; type: in vivo, Polygonum convolvulus; conditions: Dosage 320 g/ha, pre-emergence
How it was run: as §3

AMARE [18] = assay: Post-emergence action against AMARE; type: in vivo, Amaranthus retroflexus; conditions: for Post-emergence action against AMARE (herbicidal action in percent): dosage 80 g/ha, visual assessment about 3 weeks after treatment vs untreated controls
How it was run: as §2

ECHCG [19] = assay: Post-emergence action against ECHCG; type: in vivo, Echinochloa crus-galli; conditions: post-emergence, dosage 80 g/ha, visual assessment about 3 weeks after treatment vs untreated controls
How it was run: as §2

SETVI [20] = assay: Post-emergence action against SETVI; type: in vivo, Setaria viridis; conditions: for Post-emergence action against SETVI (herbicidal action in percent): dosage 80 g/ha, visual assessment about 3 weeks after treatment vs untreated controls
How it was run: as §2

MATIN [21] = assay: Post-emergence action against MATIN; type: in vivo, Matricaria inodora; conditions: for Post-emergence action against MATIN (herbicidal action in percent): dosage 80 g/ha, visual assessment about 3 weeks after treatment vs untreated controls
How it was run: as §2

AVEFA [22] = assay: Pre-emergence action against AVEFA; type: in vivo, Avena fatua; conditions: dosage 320 g/ha, scored visually after 3 weeks vs untreated controls
How it was run: as §3

CYPES [23] = assay: Post-emergence action against CYPES; type: in vivo, Cyperus esculentus; conditions: post-emergence, dosage 80 g/ha, visual assessment about 3 weeks after treatment vs untreated controls
How it was run: as §2

ALOMY = assay: Pre-emergence action against ALOMY; type: in vivo, Alopecurus myosuroides; conditions: for Pre-emergence action against ALOMY (herbicidal activity in percent): dosage 320 g/ha, scored visually after 3 weeks vs untreated controls, 100% = plants have died, 0% = like control plants
How it was run: as §3

PHBPU [24] = assay: Pre-emergence action against PHBPU; type: in vivo, Pharbitis purpurea; conditions: Dosage 320 g/ha, pre-emergence
How it was run: as §3

[25] = Table V19, post-emergence, 5 g of a.i./ha
[26] = Table V21, post-emergence, 5 g of a.i./ha
[27] = Table V10, pre-emergence, 80 g of a.i./ha
[28] = Table V17, post-emergence, 5 g of a.i./ha

SMILES | Post-emergence action against ABUTH (herbicidal action in percent) (ABUTH [2]) [%] | Pre-emergence action against CYPES (herbicidal activity) (CYPES [3]) [%] | Pre-emergence action against AMARE (herbicidal activity) (AMARE [4]) [%] | Pre-emergence action against ABUTH (herbicidal activity) (ABUTH [5]) [%] | Pre-emergence action against VIOTR (VIOTR [6]) [%] | Post-emergence action against STEME (STEME [7]) | Post-emergence action against PHBPU (PHBPU [8]) | Pre-emergence action against VERPE (VERPE [9]) [%] | SETVI (Table B8, pre-emergence herbicidal activity) (SETVI [10]) [%] | Post-emergence action against VIOTR (VIOTR [11]) | Post-emergence action against VERPE (VERPE [12]) | Post-emergence action against AVEFA (herbicidal action in percent) (AVEFA [13]) [%] | Pre-emergence action against ECHCG (herbicidal activity) (ECHCG [14]) [%] | Pre-emergence action against MATIN (MATIN [15]) [%] | Pre-emergence action against STEME (STEME [16]) [%] | Pre-emergence action against POLCO (POLCO [17]) [%] | Post-emergence action against AMARE (herbicidal action in percent) (AMARE [18]) [%] | Post-emergence action against ECHCG (herbicidal action in percent) (ECHCG [19]) [%] | Post-emergence action against SETVI (herbicidal action in percent) (SETVI [20]) [%] | Post-emergence action against MATIN (herbicidal action in percent) (MATIN [21]) [%] | other results
CCCn1nnnc1NC(=O)c1ccc(SC)c(C(=O)C2CC2)c1Cl [3-123] | 80 | 80 | 100 | 100 | 100 | 100 | 90 | 100 | 100 | 100 | 100 | 100 | 90 | 100 | 90 | 80 | 100 | 100 | 90 | 100 | Post-emergence action against POLCO (POLCO [1]): 90; Pre-emergence action against AVEFA (herbicidal activity) (AVEFA [22]): 100%
CCCn1nnnc1NC(=O)c1ccc(S(C)(=O)=O)c(C(=O)C2CC2)c1C [3-9] | 80 | – | 100 | 100 | 100 | 100 | 100 | – | 100 | 100 | 100 | 100 | 100 | 90 | – | 80 | 100 | 100 | 100 | 100 | Post-emergence action against CYPES (herbicidal action in percent) (CYPES [23]): 80%; Pre-emergence action against AVEFA (herbicidal activity) (AVEFA [22]): 90%
CCn1nnnc1NC(=O)c1ccc(S(C)(=O)=O)c(C(C)=O)c1C [2-7] | 100 | 100 | 100 | 100 | 100 | 100 | 80 | 100 | 100 | 100 | 100 | 100 | 100 | 100 | 90 | 90 | 100 | 100 | 100 | 100 | Post-emergence action against POLCO (POLCO [1]): 100; ABUTH (ABUTH [2]; [25]): 100; Herbicidal efficacy against ABUTH (ABUTH [2]; [26]): 100; Herbicidal efficacy against CYPES (CYPES [3]; Table V10, pre-emergence): 90; Herbicidal efficacy against CYPES (CYPES [3]; Table V11, pre-emergence): 90; Herbicidal efficacy against VIOTR (VIOTR [6]; Table V12, pre-emergence, 20 g of a.i./ha): 90; STEME (STEME [7]; [25]): 100; Herbicidal efficacy against STEME (STEME [7]; [26]): 100; Herbicidal efficacy against SETVI (SETVI [10]; [27]): 80; Herbicidal efficacy against ALOMY (ALOMY; [27]): 70; Pre-emergence action against ALOMY (herbicidal activity in percent) (ALOMY): 80%; Herbicidal efficacy against VIOTR (VIOTR [11]; [28]): 100; VIOTR (VIOTR [11]; [25]): 100; Herbicidal efficacy against MATIN (MATIN [15]; [27]): 100; Herbicidal efficacy against STEME (STEME [16]; [27]): 90; Herbicidal efficacy against AMARE (AMARE [18]; [26]): 100; SETVI (SETVI [20]; [25]): 90; Herbicidal efficacy against MATIN (MATIN [21]; [28]): 100; MATIN (MATIN [21]; [25]): 100
CCn1nnnc1NC(=O)c1ccc(S(C)(=O)=O)c(C(C)=O)c1Cl [2-127] | 100 | 90 | 100 | 100 | 100 | 100 | 100 | 100 | 90 | 100 | 100 | 90 | 100 | 100 | 90 | – | 100 | 100 | 90 | 90 | Post-emergence action against CYPES (herbicidal action in percent) (CYPES [23]): 90%; Pre-emergence action against PHBPU (PHBPU [24]): 90%; Pre-emergence action against AVEFA (herbicidal activity) (AVEFA [22]): 90%
CCCn1nnnc1NC(=O)c1ccc(S(C)(=O)=O)c(C(C)=O)c1C [3-7] | 100 | 100 | 100 | 100 | 100 | 100 | 90 | 100 | 100 | 100 | 100 | 100 | 100 | 100 | 90 | 90 | 100 | 100 | 100 | 100 | Post-emergence action against POLCO (POLCO [1]): 80; Pre-emergence action against ALOMY (herbicidal activity in percent) (ALOMY): 80%; Post-emergence action against CYPES (herbicidal action in percent) (CYPES [23]): 80%; Pre-emergence action against PHBPU (PHBPU [24]): 90%; Pre-emergence action against AVEFA (herbicidal activity) (AVEFA [22]): 90%
